# Reference: publication PMC5474678 (Journal of medicinal chemistry, 2015)
# Key:
# MOLM-13 cells = assay: Cell viability assay; format: cell-based; details: Homo sapiens, MOLM-13, 96 h, read-out: IC50 cell growth inhibition MOLM-13
# BRD2 BD1 = BRD2 BD1 (Homo sapiens, UniProt P25440); assay: Competitive fluorescence polarization
# MV4;11 cells = assay: Cell viability assay; format: cell-based; details: Homo sapiens, MV4-11, 96 h, read-out: IC50 cell growth inhibition MV4
# BRD4 BD2 = BRD4 BD2 (Homo sapiens, UniProt O60885); assay: Competitive fluorescence polarization
# BRD3 BD2 = BRD3 BD2 (Homo sapiens, UniProt Q15059); assay: Competitive fluorescence polarization
# Chain of BRD3 BD2 (Q15059 306-417): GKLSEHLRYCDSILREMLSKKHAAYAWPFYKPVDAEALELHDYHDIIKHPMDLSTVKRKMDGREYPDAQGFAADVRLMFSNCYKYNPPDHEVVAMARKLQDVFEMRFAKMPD
# K562 cells = assay: Cell viability assay; format: cell-based; details: Homo sapiens, K562, 96 h, read-out: IC50 cell growth inhibition K562
# BRD3 BD1 = BRD3 BD1 (Homo sapiens, UniProt Q15059); assay: Competitive fluorescence polarization
# Chain of BRD3 BD1 (Q15059 24-144): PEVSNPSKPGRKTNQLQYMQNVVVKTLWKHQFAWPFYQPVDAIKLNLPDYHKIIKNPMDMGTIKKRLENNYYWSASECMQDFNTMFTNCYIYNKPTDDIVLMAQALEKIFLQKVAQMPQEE
# BRD4 BD1 = BRD4 BD1 (Homo sapiens, UniProt O60885); assay: Competitive fluorescence polarization
# Chain of BRD2 BD1 (P25440 72-205): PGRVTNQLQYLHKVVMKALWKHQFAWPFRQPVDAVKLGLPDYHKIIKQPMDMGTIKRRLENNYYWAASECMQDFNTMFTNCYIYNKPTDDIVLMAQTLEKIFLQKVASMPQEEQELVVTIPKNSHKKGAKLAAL
structure (smiles),measurement,setting,value
"COc1cc2c(cc1-c1c(C)noc1C)[nH]c1ccnc(-c3c(-c4ccccc4)n[nH]c3C)c12 [Compound 19, 4-(8-Methoxy-1-(5-methyl-3-phenyl-1H-pyrazol-4-yl)-5H-pyrido[4,3-b]indol-7-yl)-3,5-dimethyl-isoxazole]",IC50,MOLM-13 cells,144 ± 31 nM
same,Ki,BRD2 BD1,12.2 ± 1.7 nM
same,IC50,MV4;11 cells,34 ± 15 nM
same,IC50,BRD4 BD2,129 ± 45 nM
same,Ki,BRD4 BD2,38 ± 2.2 nM
same,Ki,BRD3 BD2,9.4 ± 1 nM
same,IC50,K562 cells,> 2000 nM
same,Ki,BRD3 BD1,10.4 ± 1 nM
same,IC50,BRD4 BD1,80.6 ± 1 nM
same,Ki,BRD4 BD1,26.9 ± 1 nM
